The subject of test [1] is normal gingival fibroblasts. The test can be described thus: three-dimensional collagen gel culture system with normal gingival fibroblasts (Experimental Example 1). It is filed as cell-based, human. The conditions noted are these: day 5 of suspension culture, HGF 25 and 50 ng/mL, HGF-neutralizing antibody 20 μg/mL. The source says: In addition, gingival fibroblasts with a low resolution of collagen gel (hereinafter, sometimes referred to as “normal gingival fibroblasts”) were used as controls. Gingival fibroblasts with which the contraction of collagen gel having a diameter of 35 mm remained to a diameter of about 10 mm were used as normal gingival fibroblasts.
In addition, the same collagen gel as the above-described collagen gel was produced for comparison except that the above-described normal gingival fibroblasts were used instead of the gingival fibroblasts which extremely decompose collagen gel.
Subsequently, each prepared collagen gel piece was incubated at 37° C. After 24 hours, each collagen gel piece was peeled off from a plate and was suspended (on day 1 of culture). Each test substance (HGF-neutralizing antibody and HGF) having the same concentration as that described above was added to a medium. Subsequently, suspension culture of collagen gel was continued at 37° C., and collagen gel was observed on day 5 after the start of the suspension culture.
FIGS. 2(a) to 2(h) are photographs of each collagen gel piece on day 5 after the start of the suspension culture. Each mass floating in each well in FIGS. 2(a) to 2(h) is collagen gel. FIGS. 2(a) to 2(d) show results of collagen gel containing gingival fibroblasts which extremely decompose collagen gel. […]

Test [2] concerns monkey gingival fibroblasts which extremely decompose collagen gel. The test can be described thus: three-dimensional collagen gel culture system with monkey gingival fibroblasts (Experimental Example 4). It is filed as cell-based, Macaca fascicularis. The conditions noted are these: HGF 50 ng/mL, HGF-neutralizing antibody 20 μg/mL. The source says: Before clinical application of the therapeutic agent for periodontitis of the present invention to humans, it is necessary to conduct experiments using monkeys. An effect of an HGF-neutralizing antibody on degradation of collagen using gingival fibroblasts derived from a monkey naturally occurred periodontitis was examined using the same three-dimensional collagen gel culture system as in Experimental Example 1. Since it is difficult to culture gingival epithelial cells of monkeys, human gingival epithelial cells were used as gingival epithelial cells. Tissue of a gingiva piece derived from an euthanasia individual of a monkey (Macaca fascicularis, raised in Tsukuba Primate Research Center) naturally occurred periodontitis was cut, and then, the tissue pieces were allowed to stand on the bottom of a cell culture plate. Subsequently, outgrown cells from the tissue pieces were subcultured as a first generation to obtain monkey gingival fibroblasts. The obtained gingival fibroblasts were once cultured in the above-described three-dimensional collagen gel culture system to observe collagen resolution, and gingival fibroblasts which extremely decompose collagen gel (that is, with which collagen gel were degraded and contracted). […]

The subject of test [3] is gingival fibroblasts extremely decomposing collagen gel (PAF1, PAF2). The experiment in a line: weight of collagen gel after three-dimensional culture (Experimental Example 3). The conditions noted are these: HGF 50 ng/mL, HGF-neutralizing antibody 20 μg/mL; for weight of collagen gel: day 5 of suspension culture. Type of test: cell-based, human. The procedure:
Cell matrix type I-A (Nitta Gelatin Inc.), 5×DMEM, a buffer solution for reconstitution (Nitta gelatin) were mixed with each other to prepare a collagen mixed solution. An HGF-neutralizing antibody (model “AB-294-NA”, R&D) was added to this collagen mixed solution so that the final concentration became 20 μg/mL. In addition, a sample containing no test substance (control) and a sample to which HGF (model “100-39”, PeproTech, Inc.) was added so that the final concentrations became 50 ng/mL were prepared for comparison.
Subsequently, the same gingival fibroblasts, which extremely decompose collagen gel, as in Experimental Example 1 were mixed with these collagen mixed solutions and seeded in a 6-well plate so that the cell density became 2.5×10^5 cells/well. Subsequently, the mixture was incubated at 37° C. for 30 minutes and the collagen gel was hardened. Two kinds of cells (hereinafter, referred to as “PAF1” and “PAF2”) were used as gingival fibroblasts extremely decomposing collagen gel.
Subsequently, the same gingival epithelial cells as in Experimental Example 1 were dispersed by trypsin treatment, and were then seeded on the above-described collagen gel at 2×10^5 cells/well to form a single layer of the epithelial cells.
Subsequently, each prepared collagen gel was incubated at 37° C. After 24 hours, each collagen gel piece was peeled off from a plate and was suspended (on day 1 of culture). HGF-neutralizing antibodies having the same concentration as that described above were added to a medium of a test group. Subsequently, suspension culture of collagen gel was continued at 37° C.
Collagen gel was collected on day 5 after the start of the suspension culture, and the weight thereof was measured. FIGS. 5(a) and 5(b) are photographs of collected collagen gel. […] In FIGS. 5(a) and 5(b), the “control” indicates control collagen gel, “HGF” indicates collagen gel to which HGF is added, and the “HGF-neutralizing antibody” indicates collagen gel to which an HGF-neutralizing antibody is added.

Test [4] has as its system gingival fibroblasts which extremely decompose collagen gel, derived from a patient with periodontitis. The test can be described thus: three-dimensional collagen gel culture system, collagen degradation (Experimental Example 1). It is filed as cell-based, human. The conditions noted are these: day 5 of suspension culture; compared to control; HGF 50 ng/mL; HGF-neutralizing antibody 20 μg/mL. On the procedure:
First, a three-dimensional collagen gel culture system of gingival fibroblasts previously developed by the present inventors will be described with reference to FIGS. 1(a) to 1(d). In this culture system, it is possible to evaluate the influence of a test substance on degradation of collagen in periodontal tissues in vitro and to obtain results close to in vivo.
First, as shown in FIG. 1(a), gingival fibroblasts derived from a patient with periodontitis and a test substance are added into collagen gel, and the mixture is poured into a petri dish. Subsequently, the mixture is incubated at 37° C. for 30 minutes and the collagen gel is hardened. Subsequently, gingival epithelial cells derived from the patient with periodontitis are seeded on the hardened collagen gel and incubated overnight.
Subsequently, as shown in FIG. 1(b), the collagen gel is peeled off from the petri dish to make the collagen gel float. At this time, the test substance is also added into a medium in which the collagen gel floats. Subsequently, the suspension culture is continued for 5 days. Meanwhile, the collagen gel is degraded and contracts due to various factors produced by an interaction between the gingival fibroblasts and the gingival epithelial cells. […]
Subsequently, as shown in FIG. 1(c), the amount of residual collagen is quantitatively determined on day 5 of suspension culture. […]

For the substance “HGF: HGF (model “100-39”, PeproTech, Inc.), hepatocyte growth factor added for comparison”, the “difference in decomposition of collagen” value in test [1] is on record as “no difference”. In addition, the “degradation of collagen (observation of collagen gel)” value is listed as “promoted” in test [2] (monkey gingival fibroblasts with human gingival epithelial cells (SAF1, SAF2), day 5 of suspension culture, compared to controls) and “clearly accelerated” in test [4]. In addition, the “vacuoles around cells (hematoxylin-eosin staining of thin section of collagen gel)” value in test [2] (monkey gingival fibroblasts, SAF1) is listed as “a vacuole is formed around the cell”. Moreover, the “weight of collagen gel” value in test [3] (PAF1, control 0.013 g) amounted to 0.011 g; in test [3] (PAF2, control 0.034 g), 0.028 g. Besides, the “degradation of collagen gel” value in test [3] (PAF1 and PAF2, compared to control collagen gel) is recorded as “remarkably accelerated”.

For the origin of these results see patent US20190270796A1, “THERAPEUTIC AGENT FOR PERIODONTITIS AND COMPOSTION FOR TREATING PERIODONTITIS” (NIHON UNIVERSITY, priority 2016, published 2019).
